Test results published in PMC6746850, “Identification and Molecular Characterization of Superoxide Dismutases Isolated From A Scuticociliate Parasite: Physiological Role in Oxidative Stress” (Scientific Reports, 2019).

Columns and labels:
Pd-Fe-SOD (FSD) = target: T1, Pd-Fe-SOD (FSD) (Philasterides dicentrarchi, UniProt A0A481XSU7); test: SOD activity staining (NBT) in native PAGE; assay type: biochemical; conditions: 100 μM inhibitor; anion-exchange fraction P2 (methods also describe 30 min treatment of live ciliates before lysis)
T1 construct: native enzyme, 60-65 kDa activity band in anion-exchange fraction P2 on native PAGE; homodimer
T1 sequence (A0A481XSU7 22-249): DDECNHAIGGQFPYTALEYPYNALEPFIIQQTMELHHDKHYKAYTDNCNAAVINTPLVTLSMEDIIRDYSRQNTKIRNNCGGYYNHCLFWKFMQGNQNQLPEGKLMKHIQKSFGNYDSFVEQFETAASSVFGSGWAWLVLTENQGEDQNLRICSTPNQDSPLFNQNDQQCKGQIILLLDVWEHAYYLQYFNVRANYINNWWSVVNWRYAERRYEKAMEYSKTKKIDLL

Pd-Mn-SOD (MSD) = target: T2, Pd-Mn-SOD (MSD) (Philasterides dicentrarchi, UniProt A0A410JA19); test: SOD activity staining (NBT) in native PAGE; assay type: biochemical; conditions: 100 μM inhibitor; anion-exchange fraction P2 (methods also describe 30 min treatment of live ciliates before lysis)
T2 construct: native enzyme, about 50 kDa activity band in anion-exchange fraction P2 on native PAGE; homodimer
T2 sequence (A0A410JA19 13-220): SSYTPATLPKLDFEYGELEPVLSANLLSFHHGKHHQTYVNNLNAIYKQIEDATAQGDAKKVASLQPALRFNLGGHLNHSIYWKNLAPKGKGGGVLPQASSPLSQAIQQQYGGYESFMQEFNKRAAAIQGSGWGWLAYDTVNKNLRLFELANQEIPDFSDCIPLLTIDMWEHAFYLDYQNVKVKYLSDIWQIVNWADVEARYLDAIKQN

## Oc1ccc(/C=C/c2cc(O)cc(O)c2)cc1 [trans-resveratrol]
Pd-Fe-SOD (FSD)
  complete inhibition at 100 μM: completely inhibited the activity of the Pd-Fe-SOD isoenzyme
Pd-Mn-SOD (MSD)
  partial inhibition at 100 μM: RESV partly inhibited the activity of the Pd-Mn-SOD isoenzyme
